Five molecules from patent US9980943B2, “Methods of treating muscular dystrophy” (BOARD OF REGENTS OF THE NEVADA SYSTEM OF HIGHER EDUCATION, …, priority 2013, dated 2018) can be followed below.

Holding throughout (type): cell-based, mouse
The test system of assay [1] is α7 integrin (LacZ reporter in α7+/LacZ myotubes). Description: Myotube α7 integrin FDG assay (Burkin assay in myotubes, 96-well). Particulars: for Burkin Assay in Myotubes, value relative to DMSO: SU9516 analogs, 96-well, N=3-6.
In assay [2] the test system is β-galactosidase in CMV-LacZ C2C12 myotubes. Description: CMV-LacZ secondary screen in C2C12 myotubes (β-Gal stabilizing assay). Particulars: for CMV-LACZ in Myotubes, signal relative to DMSO: C2C12 CMV-LacZ myotubes, fold relative to DMSO; for CMV-LACZ in Myotubes, value relative to DMSO: SU9516 analogs, C2C12 CMV-LacZ, N=2. In a few lines: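 First, C2C12 myoblasts were transfected with a linearized CMV-LACZ vector and clonal lines selected by FDG β-gal assay. Then cells were exposed to compounds at 0.5, 1, 5, 10, 20 and 40 μM in 96-well format, two replicates each, and β-gal measured.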

Assay [3] has as its system α7 integrin (LacZ reporter in α7βgal+/− myoblasts). Description: Myoblast α7+/LacZ integrin FDG assay (Burkin assay in myoblasts, 96-well). The settings on record: 96-well; for Burkin Assay in Myoblasts, signal relative to DMSO: α7+/LacZ myoblasts; for Burkin Assay in Myoblasts, value relative to DMSO: SU9516 analogs, N=3-6.
Assay [4] concerns β-galactosidase in CMV-LacZ C2C12 myoblasts. Description: CMV-LacZ secondary screen in C2C12 myoblasts (β-Gal stabilizing assay). Particulars: for CMV-LACZ in Myoblasts (β-galactosidase activity relative to DMSO): CMV-LacZ C2C12 myoblasts; for CMV-LACZ in Myoblasts, value relative to DMSO: SU9516 analogs, C2C12 CMV-LacZ, N=2. The gist of the method:
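CMV-LacZ C2C12 line (clonal, FDG-screened); myoblasts/myotubes dosed 0.5–40 μM (0.5, 1, 5, 10, 20, 40 μM); n=2 per point; β-gal stabilization read-out.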

Structures are written as SMILES.

Take `Cc1cccc(NCC(=O)N/N=C\c2ccccn2)c1` [MLS000710288-01]: the “Burkin Assay in Myotubes, α7 integrin LacZ reporter signal relative to DMSO” value in assay [1] (0.5 uM) worked out at 1.076; in assay [1] (1 uM), 0.9575; in assay [1] (5 uM) it was 1.084; in assay [1] (10 uM), 0.9598; in assay [1] (20 uM), 1.024; in assay [1] (40 uM), 0.8202. In addition, the “CMV-LACZ in Myotubes, signal relative to DMSO” value worked out at 1.0371 in assay [2] (0.5 uM); 1.1133 in assay [2] (1 uM); 1.0717 in assay [2] (5 uM); 1.1225 in assay [2] (10 uM); 0.9400 in assay [2] (20 uM); 0.8905 in assay [2] (40 uM). Also, the “Burkin Assay in Myoblasts, signal relative to DMSO” value is listed as 1.168 in assay [3] (0.5 uM); 1.305 in assay [3] (1 uM); 1.3928 in assay [3] (5 uM); 1.1778 in assay [3] (10 uM); 0.8681 in assay [3] (20 uM); 0.5963 in assay [3] (40 uM). Moreover, the “CMV-LACZ in Myoblasts (β-galactosidase activity relative to DMSO)” value in assay [4] (0.5 uM) was 1.0338; in assay [4] (1 uM) it was 0.9325; in assay [4] (5 uM), 1.0737; in assay [4] (10 uM) it was 1.2515; in assay [4] (20 uM), 1.1193; in assay [4] (40 uM), 0.9063.
Consider `CCN(CC)CCNC(=O)c1c(C)[nH]c(/C=C2\C(=O)Nc3ccc(F)cc32)c1C` [NCGC00164631-04], for which the “Burkin Assay in Myotubes, value relative to DMSO” value was 0.9761 in assay [1] (0.5 uM); 0.9998 in assay [1] (1 uM); 0.7739 in assay [1] (5 uM); 0.2132 in assay [1] (10 uM); 0.08218 in assay [1] (20 uM); 0.08093 in assay [1] (40 uM). The “CMV-LACZ in Myotubes, value relative to DMSO” value in assay [2] (0.5 uM) is reported as 1.1336; in assay [2] (1 uM), 0.9164; in assay [2] (5 uM), 0.8803; in assay [2] (10 uM), 0.3804; in assay [2] (20 uM), 0.6490; in assay [2] (40 uM), 0.6690. In addition, the “Burkin Assay in Myoblasts, value relative to DMSO” value in assay [3] (0.5 uM) came out at 1.023; in assay [3] (1 uM), 1.011; in assay [3] (5 uM), 0.529; in assay [3] (10 uM), 0.08696; in assay [3] (20 uM), 0.01476; in assay [3] (40 uM), 0.01361. Further, the “CMV-LACZ in Myoblasts, value relative to DMSO” value in assay [4] (0.5 uM) amounted to 0.8225; in assay [4] (5 uM), 0.6842; in assay [4] (10 uM), 0.4405; in assay [4] (20 uM) it was 0.2323; in assay [4] (40 uM) it was 0.1827.
For `COc1ccccc1NS(=O)(=O)c1cc(NC(=O)c2ccc(Cl)nc2)ccc1N1CCCC1` [MLS002248819-01], the “Burkin Assay in Myotubes, α7 integrin LacZ reporter signal relative to DMSO” value in assay [1] (0.5 uM) is recorded as 1.117; in assay [1] (1 uM) it was 1.198; in assay [1] (5 uM) it was 1.066; in assay [1] (10 uM), 1.24; in assay [1] (20 uM), 0.9243; in assay [1] (40 uM) it was 0.8508. Besides, the “CMV-LACZ in Myotubes, signal relative to DMSO” value in assay [2] (0.5 uM) was determined as 1.0819; in assay [2] (1 uM), 0.9505; in assay [2] (5 uM) it was 1.1171; in assay [2] (10 uM) it was 1.1534; in assay [2] (20 uM), 0.9847; in assay [2] (40 uM) it was 1.1929. Also, the “Burkin Assay in Myoblasts, signal relative to DMSO” value in assay [3] (0.5 uM) is 1.126; in assay [3] (1 uM) it was 1.113; in assay [3] (5 uM), 1.068; in assay [3] (10 uM), 1.0849; in assay [3] (20 uM) it was 0.8184; in assay [3] (40 uM), 0.7689. The “CMV-LACZ in Myoblasts (β-galactosidase activity relative to DMSO)” value in assay [4] (0.5 uM) was 0.9206; in assay [4] (1 uM) it was 1.2206; in assay [4] (5 uM), 1.2604; in assay [4] (10 uM), 1.1575; in assay [4] (20 uM) it was 1.7330; in assay [4] (40 uM), 1.0270.
Regarding `O=Nc1c(-c2c(O)[nH]c3cc(Br)ccc23)[nH]c2ccccc12` [NCGC00094112-04], the “Burkin Assay in Myotubes, value relative to DMSO” value in assay [1] (0.5 uM) turned out to be 0.7402; in assay [1] (1 uM) it was 0.8159; in assay [1] (5 uM) it was 0.7596; in assay [1] (10 uM), 0.629; in assay [1] (20 uM), 0.6813; in assay [1] (40 uM), 0.35. The “CMV-LACZ in Myotubes, value relative to DMSO” value was 1.0409 in assay [2] (0.5 uM); 0.8864 in assay [2] (1 uM); 0.8123 in assay [2] (5 uM); 0.7933 in assay [2] (10 uM); 0.7190 in assay [2] (20 uM); 0.5420 in assay [2] (40 uM). In addition, the “Burkin Assay in Myoblasts, value relative to DMSO” value in assay [3] (0.5 uM) is recorded as 1.019; in assay [3] (1 uM) it was 0.9927; in assay [3] (5 uM), 0.5722; in assay [3] (10 uM) it was 0.4943; in assay [3] (20 uM), 0.4509; in assay [3] (40 uM) it was 0.3428. Also, the “CMV-LACZ in Myoblasts, value relative to DMSO” value came out at 1.1721 in assay [4] (0.5 uM); 1.1779 in assay [4] (1 uM); 1.0309 in assay [4] (5 uM); 1.0782 in assay [4] (10 uM); 0.4403 in assay [4] (20 uM); 0.3627 in assay [4] (40 uM).
Turning to `NC(=O)COc1ccc(C(=O)/C=C2/C(=O)Nc3ccccc32)cc1` [MLS001214300-01], the “Burkin Assay in Myotubes, value relative to DMSO” value in assay [1] (0.5 uM) is 1.019; in assay [1] (1 uM), 1.039; in assay [1] (5 uM) it was 1.091; in assay [1] (10 uM) it was 0.8733; in assay [1] (20 uM) it was 0.7447; in assay [1] (40 uM), 0.3178. The “CMV-LACZ in Myotubes, value relative to DMSO” value was 0.9819 in assay [2] (0.5 uM); 0.8924 in assay [2] (1 uM); 1.0550 in assay [2] (5 uM); 1.0956 in assay [2] (10 uM); 6.2635 in assay [2] (20 uM); 0.7118 in assay [2] (40 uM). The “Burkin Assay in Myoblasts, value relative to DMSO” value in assay [3] (0.5 uM) is 1.211; in assay [3] (1 uM), 0.9366; in assay [3] (5 uM), 0.8041; in assay [3] (10 uM) it was 0.353; in assay [3] (20 uM), 0.1847; in assay [3] (40 uM), 0.02593. The “CMV-LACZ in Myoblasts, value relative to DMSO” value in assay [4] (0.5 uM) was 1.0446; in assay [4] (1 uM), 0.9403; in assay [4] (5 uM), 0.7949; in assay [4] (10 uM), 1.1047; in assay [4] (20 uM), 0.4007; in assay [4] (40 uM) it was 0.1793.
